Tested on: MV-4-11 cells
Experiment: Gene expression microarray analysis (Affymetrix PrimeView) and GSEA
Assay type: cell-based, human
Set-up: RFU PODN (11730768_x_at) / Fold change /veh PODN (11730768_x_at) / RFU LINC00158 (11744669_a_at) / Fold change /veh LINC00158 (11744669_a_at) / RFU DUSP10 (11751237_a_at) / Fold change /veh DUSP10 (11751237_a_at) / RFU ID3 (11757404_x_at) / Fold change /veh ID3 (11757404_x_at) / RFU PLEKHG5 (11737974_s_at) / Fold change /veh PLEKHG5 (11737974_s_at) / RFU LRRC4B (11730491_at) / Fold change /veh LRRC4B (11730491_at) / RFU GIMAP4 (11747438_a_at) / Fold change /veh GIMAP4 (11747438_a_at) / RFU KRT8 (11758183_x_at) / Fold change /veh KRT8 (11758183_x_at) / RFU CNN1 (11734310_a_at) / Fold change /veh CNN1 (11734310_a_at) / RFU VPS37D (11726825_at) / Fold change /veh VPS37D (11726825_at) / RFU C10orf10 (11716522_x_at) / Fold change /veh C10orf10 (11716522_x_at) / RFU KIR2DL2 /// KIR2DL4 /// KIR2DL5A /// KIR2DL5B /// KIR2DS1 /// KIR2DS2 /// KIR2DS3 /// KIR2DS4 /// KIR3DL3 /// KIR3DL3 /// KIR3DS1 (11738374_at) / Fold change /veh KIR2DL2 /// KIR2DL4 /// KIR2DL5A /// KIR2DL5B /// KIR2DS1 /// KIR2DS2 /// KIR2DS3 /// KIR2DS4 /// KIR3DL3 /// KIR3DL3 /// KIR3DS1 (11738374_at) / RFU C1QL1 (11718748_at) / Fold change /veh C1QL1 (11718748_at) / RFU TMPRSS4 (11747572_a_at) / Fold change /veh TMPRSS4 (11747572_a_at) / RFU HAMP (11756126_x_at) / Fold change /veh HAMP (11756126_x_at) / RFU RNFT2 (11725882_a_at) / Fold change /veh RNFT2 (11725882_a_at) / RFU NR4A2 (11747474_a_at) / Fold change /veh NR4A2 (11747474_a_at) / RFU ABCC12 (11746883_a_at) / Fold change /veh ABCC12 (11746883_a_at) / RFU TMEM136 (11760407_x_at) / Fold change /veh TMEM136 (11760407_x_at) / RFU CLDN22 /// WWC2 (11732394_at) / Fold change /veh CLDN22 /// WWC2 (11732394_at) / RFU HLA-DPB1 (11760878_x_at) / Fold change /veh HLA-DPB1 (11760878_x_at) / RFU SPINT1 (11716480_a_at) / Fold change /veh SPINT1 (11716480_a_at) / RFU GAP43 (11754022_s_at) / Fold change /veh GAP43 (11754022_s_at) / RFU A4GNT (11735810_at) / Fold change /veh A4GNT (11735810_at) / RFU PRB3 (11715151_x_at) / Fold change /veh PRB3 (11715151_x_at) / RFU TUBB4B (11761932_at) / Fold change /veh TUBB4B (11761932_at) / RFU CAPN14 (11732068_a_at) / Fold change /veh CAPN14 (11732068_a_at) / RFU TMCC2 (11721928_a_at) / Fold change /veh TMCC2 (11721928_a_at) / RFU IRGQ (11745062_a_at) / Fold change /veh IRGQ (11745062_a_at) / RFU FAM174B (11720279_a_at) / Fold change /veh FAM174B (11720279_a_at) / RFU TMPRSS4 (11748680_a_at) / Fold change /veh TMPRSS4 (11748680_a_at) / RFU FAM212B (11763350_a_at) / Fold change /veh FAM212B (11763350_a_at) / RFU PLEKHG5 (11743358_a_at) / Fold change /veh PLEKHG5 (11743358_a_at) / RFU ZSCAN30 (11745921_a_at) / Fold change /veh ZSCAN30 (11745921_a_at) / RFU CMKLR1 (11741424_a_at) / Fold change /veh CMKLR1 (11741424_a_at) / RFU LOC101060620 /// MAPK8IP1 (11723275_at) / Fold change /veh LOC101060620 /// MAPK8IP1 (11723275_at) / RFU SPTSSB (11747773_x_at) / Fold change /veh SPTSSB (11747773_x_at) / RFU PRSS12 (11739890_at) / Fold change /veh PRSS12 (11739890_at) / RFU BIN1 (11741810_x_at) / Fold change /veh BIN1 (11741810_x_at) / RFU WNT11 (11732464_a_at) / Fold change /veh WNT11 (11732464_a_at) / RFU C10orf10 (11716521_a_at) / Fold change /veh C10orf10 (11716521_a_at) / RFU C5orf56 (11738089_at) / Fold change /veh C5orf56 (11738089_at) / RFU CYB561 (11721691_x_at) / Fold change /veh CYB561 (11721691_x_at) / RFU ANKRD19P (11752326_a_at) / Fold change /veh ANKRD19P (11752326_a_at) / RFU OR2T12 /// OR2T33 /// OR2T8 (11738714_s_at) / Fold change /veh OR2T12 /// OR2T33 /// OR2T8 (11738714_s_at) / RFU VCAN (11748164_a_at) / Fold change /veh VCAN (11748164_a_at) / RFU JSRP1 (11732532_at) / Fold change /veh JSRP1 (11732532_at) / RFU KRTAP10-11 (11738290_x_at) / Fold change /veh KRTAP10-11 (11738290_x_at) / RFU MYO3A (11730013_a_at) / Fold change /veh MYO3A (11730013_a_at) / RFU EBF3 (11725865_a_at) / Fold change /veh EBF3 (11725865_a_at) / RFU CAMK2N1 (11719241_x_at) / Fold change /veh CAMK2N1 (11719241_x_at) / RFU C5orf56 (11738088_a_at) / Fold change /veh C5orf56 (11738088_a_at) / RFU OLFML3 (11715873_a_at) / Fold change /veh OLFML3 (11715873_a_at) / RFU LOC100653217 /// NTM (11731650_a_at) / Fold change /veh LOC100653217 /// NTM (11731650_a_at) / RFU MAPK11 (11762145_a_at) / Fold change /veh MAPK11 (11762145_a_at) / RFU FIZ1 (11724087_x_at) / Fold change /veh FIZ1 (11724087_x_at) / RFU OASL (11726364_x_at) / Fold change /veh OASL (11726364_x_at) / RFU SOX15 (11748057_x_at) / Fold change /veh SOX15 (11748057_x_at) / RFU CD79A (11719716_a_at) / Fold change /veh CD79A (11719716_a_at) / RFU HIST1H1D (11736915_at) / Fold change /veh HIST1H1D (11736915_at) / RFU CASKIN2 (11723855_a_at) / Fold change /veh CASKIN2 (11723855_a_at) / RFU LOC730098 (11760151_x_at) / Fold change /veh LOC730098 (11760151_x_at) / RFU OR4N2 (11742367_at) / Fold change /veh OR4N2 (11742367_at) / RFU PRRT2 (11749266_a_at) / Fold change /veh PRRT2 (11749266_a_at) / RFU SNX32 (11753110_a_at) / Fold change /veh SNX32 (11753110_a_at) / RFU CDHR5 (11726645_a_at) / Fold change /veh CDHR5 (11726645_a_at) / RFU RCAN1 (11760418_a_at) / Fold change /veh RCAN1 (11760418_a_at) / RFU FAM167A (11723789_a_at) / Fold change /veh FAM167A (11723789_a_at) / RFU FAM26E (11764081_at) / Fold change /veh FAM26E (11764081_at) / RFU ISYNA1 (11749810_s_at) / Fold change /veh ISYNA1 (11749810_s_at) / RFU ACY1 (11761880_at) / Fold change /veh ACY1 (11761880_at) / RFU 11764098_at / Fold change /veh 11764098_at / RFU SAMD14 (11745864_x_at) / Fold change /veh SAMD14 (11745864_x_at) / RFU NPB (11741838_a_at) / Fold change /veh NPB (11741838_a_at) / RFU TMPRSS6 (11731388_a_at) / Fold change /veh TMPRSS6 (11731388_a_at) / RFU KRTAP10-2 (11738614_at) / Fold change /veh KRTAP10-2 (11738614_at) / RFU ARHGAP8 /// PRR5-ARHGAP8 (11727945_x_at) / Fold change /veh ARHGAP8 /// PRR5-ARHGAP8 (11727945_x_at) / RFU KRTAP5-7 /// NADSYN1 (11734609_at) / Fold change /veh KRTAP5-7 /// NADSYN1 (11734609_at) / RFU RASL12 (11751679_a_at) / Fold change /veh RASL12 (11751679_a_at) / RFU CDKN2B (11736163_a_at) / Fold change /veh CDKN2B (11736163_a_at) / RFU PRF1 (11729649_at) / Fold change /veh PRF1 (11729649_at) / RFU, ZNF638 /// ZNF638-IT1 / Fold change vs veh, ZNF638 /// ZNF638-IT1 / RFU, PANK3 / Fold change vs veh, PANK3 / RFU, SH3YL1 / Fold change vs veh, SH3YL1 / RFU, ZEB2 / Fold change vs veh, ZEB2 / RFU, NRIP1 / Fold change vs veh, NRIP1 / RFU, PTTG1IP / Fold change vs veh, PTTG1IP / RFU, CAPN2 / Fold change vs veh, CAPN2 / RFU, MED14 / Fold change vs veh, MED14 / RFU, SNORA58 / Fold change vs veh, SNORA58 / RFU, C1orf63 / Fold change vs veh, C1orf63 / RFU, LRRFIP1 / Fold change vs veh, LRRFIP1 / RFU, NDUFAF7 / Fold change vs veh, NDUFAF7 / RFU, SLC12A2 / Fold change vs veh, SLC12A2 / RFU, IBTK / Fold change vs veh, IBTK / RFU, ESF1 / Fold change vs veh, ESF1 / Fold change vs veh, TMEM50B / RFU, TAOK1 / Fold change vs veh, TAOK1 / RFU, ACBD3 / Fold change vs veh, ACBD3 / RFU, TMA16 / Fold change vs veh, TMA16 / RFU, RWDD3 / Fold change vs veh, RWDD3 / RFU, BCAT1 / Fold change vs veh, BCAT1 / RFU, EDEM3 / Fold change vs veh, EDEM3 / RFU, TMEM33 / Fold change vs veh, TMEM33 / RFU, WDR75 / Fold change vs veh, WDR75 / RFU, AHCTF1 / Fold change vs veh, AHCTF1 / RFU, TFRC / Fold change vs veh, TFRC / RFU, ZDHHC17 / Fold change vs veh, ZDHHC17 / RFU, NOM1 / Fold change vs veh, NOM1 / RFU, ARL8B / Fold change vs veh, ARL8B / RFU, ZBTB11 / Fold change vs veh, ZBTB11 / RFU, TAMM41 / Fold change vs veh, TAMM41 / RFU, KIAA1704 /// LOC100996395 / Fold change vs veh, KIAA1704 /// LOC100996395 / RFU, ING1 / Fold change vs veh, ING1 / RFU, TRMT61B / Fold change vs veh, TRMT61B / RFU, FUBP3 / Fold change vs veh, FUBP3 / RFU, TP53 / Fold change vs veh, TP53 / RFU, TNKS2 / Fold change vs veh, TNKS2 / RFU, ZFP14 / Fold change vs veh, ZFP14 / RFU, ACTR2 / Fold change vs veh, ACTR2 / RFU, PPP3R1 / Fold change vs veh, PPP3R1 / RFU, PIK3R1 / Fold change vs veh, PIK3R1 / RFU, HNRNPA1 / Fold change vs veh, HNRNPA1 / RFU, RNF170 / Fold change vs veh, RNF170 / RFU, ZNF28 / Fold change vs veh, ZNF28 / RFU, RNGTT / Fold change vs veh, RNGTT / RFU, OGT / Fold change vs veh, OGT / RFU, BRD1 / Fold change vs veh, BRD1 / RFU, MARS / Fold change vs veh, MARS / RFU, ZNF655 / Fold change vs veh, ZNF655 / RFU, FAHD1 / Fold change vs veh, FAHD1 / RFU, BDP1 / Fold change vs veh, BDP1 / RFU, LRRCC1 / Fold change vs veh, LRRCC1 / RFU, ARID1A / Fold change vs veh, ARID1A / RFU, ZNF146 / Fold change vs veh, ZNF146 / RFU, ZNF330 / Fold change vs veh, ZNF330 / RFU, GPN3 / Fold change vs veh, GPN3 / RFU, C9orf123 / Fold change vs veh, C9orf123 / RFU, N4BP2L2 / Fold change vs veh, N4BP2L2 / RFU, ARFIP1 / Fold change vs veh, ARFIP1 / RFU, FAM179B / Fold change vs veh, FAM179B / RFU, BCL10 / Fold change vs veh, BCL10 / RFU, UHRF1BP1L / Fold change vs veh, UHRF1BP1L / RFU, BET1 / Fold change vs veh, BET1 / RFU, CNOT2 / Fold change vs veh, CNOT2 / RFU, ZNF268 / Fold change vs veh, ZNF268 / Fold change vs veh, ZNF507 / RFU, DGCR2 / Fold change vs veh, DGCR2 / RFU, WDSUB1 / Fold change vs veh, WDSUB1 / Fold change vs veh, HSP90B1 /// MIR3652 / RFU, ADSS / Fold change vs veh, ADSS / RFU, GK / Fold change vs veh, GK / RFU, ZNF148 / Fold change vs veh, ZNF148 / RFU, TAF9 / Fold change vs veh, TAF9 / RFU, SLC1A5 / Fold change vs veh, SLC1A5 / RFU, SLMO2 / Fold change vs veh, SLMO2 / RFU, ABCC4 / Fold change vs veh, ABCC4 / RFU, LOC101060439 /// RAP1B / Fold change vs veh, LOC101060439 /// RAP1B / RFU, RFX7 / Fold change vs veh, RFX7 / RFU, GTPBP10 / Fold change vs veh, GTPBP10 / RFU, CNEP1R1 / Fold change vs veh, CNEP1R1 / RFU, BIVM-ERCC5 /// ERCC5 / Fold change vs veh, BIVM-ERCC5 /// ERCC5 / RFU, ILF3 / Fold change vs veh, ILF3 / RFU 11762660_at / Fold change /veh 11762660_at / RFU VCAN (11757783_s_at) / Fold change /veh VCAN (11757783_s_at) / RFU DDX43 (11728927_at) / Fold change /veh DDX43 (11728927_at) / RFU KRT8 (11758188_x_at) / Fold change /veh KRT8 (11758188_x_at) / RFU NKD1 (11759106_at) / Fold change /veh NKD1 (11759106_at) / RFU SRD5A1 (11742802_a_at) / Fold change /veh SRD5A1 (11742802_a_at) / RFU TPSAB1 /// TPSB2 (11721975_s_at) / Fold change /veh TPSAB1 /// TPSB2 (11721975_s_at) / RFU GSTM3 (11746129_a_at) / Fold change /veh GSTM3 (11746129_a_at) / RFU IL23R (11737362_x_at) / Fold change /veh IL23R (11737362_x_at) / RFU TMEM51 (11727254_a_at) / Fold change /veh TMEM51 (11727254_a_at) / RFU PIWIL2 (11732686_x_at) / Fold change /veh PIWIL2 (11732686_x_at) / RFU ORM1 (11744905_x_at) / Fold change /veh ORM1 (11744905_x_at) / RFU CCDC152 (11743942_at) / Fold change /veh CCDC152 (11743942_at) / RFU ECM1 (11717891_a_at) / Fold change /veh ECM1 (11717891_a_at) / RFU IL23R (11748794_a_at) / Fold change /veh IL23R (11748794_a_at) / RFU TNFAIP8L3 (11732012_x_at) / Fold change /veh TNFAIP8L3 (11732012_x_at) / RFU MBOAT4 (11741988_at) / Fold change /veh MBOAT4 (11741988_at) / RFU 11764193_at / Fold change /veh 11764193_at / RFU TMEM53 (11763286_at) / Fold change /veh TMEM53 (11763286_at) / RFU MAGEB2 (11727129_at) / Fold change /veh MAGEB2 (11727129_at) / RFU TMEM200A (11744735_a_at) / Fold change /veh TMEM200A (11744735_a_at) / RFU CCDC152 (11751479_a_at) / Fold change /veh CCDC152 (11751479_a_at) / RFU FAM211A (11726209_a_at) / Fold change /veh FAM211A (11726209_a_at) / RFU RGS16 (11746705_a_at) / Fold change /veh RGS16 (11746705_a_at) / RFU VCAN (11755009_s_at) / Fold change /veh VCAN (11755009_s_at) / RFU RHOB (11743442_s_at) / Fold change /veh RHOB (11743442_s_at) / RFU RGS16 (11720943_a_at) / Fold change /veh RGS16 (11720943_a_at) / RFU RGS16 (11720944_at) / Fold change /veh RGS16 (11720944_at) / RFU, VPS4B / Fold change vs veh, VPS4B / RFU, CREB1 / Fold change vs veh, CREB1 / RFU, DNAJC13 / Fold change vs veh, DNAJC13 / RFU, GNAQ / Fold change vs veh, GNAQ / RFU, CDK5R1 / Fold change vs veh, CDK5R1 / RFU, ZRANB3 / Fold change vs veh, ZRANB3 / RFU, CUL4A / Fold change vs veh, CUL4A / RFU, CCNY / Fold change vs veh, CCNY / RFU, UFL1 / Fold change vs veh, UFL1 / RFU, COG3 / Fold change vs veh, COG3 / RFU, DIAPH2 / Fold change vs veh, DIAPH2 / RFU, SKA2 / Fold change vs veh, SKA2 / RFU, AFF3 / Fold change vs veh, AFF3 / RFU, LMF1 / Fold change vs veh, LMF1 / RFU, IPO11 / Fold change vs veh, IPO11 / RFU, DFFB / Fold change vs veh, DFFB / RFU, FOXP1 / Fold change vs veh, FOXP1 / RFU, CARD8 / Fold change vs veh, CARD8 / RFU, STRN3 / Fold change vs veh, STRN3 / RFU, ADK / Fold change vs veh, ADK / RFU, RASSF2 / Fold change vs veh, RASSF2 / RFU, WIPF1 / Fold change vs veh, WIPF1 / RFU, LARP1B / Fold change vs veh, LARP1B / RFU, RASA1 / Fold change vs veh, RASA1 / RFU, RB1 / Fold change vs veh, RB1 / RFU, PPFIA1 / Fold change vs veh, PPFIA1 / RFU, MAT2A / Fold change vs veh, MAT2A / RFU, CCT5 / Fold change vs veh, CCT5 / RFU, WDR92 / Fold change vs veh, WDR92 / RFU, CUX1 / Fold change vs veh, CUX1 / RFU, TTC7A / Fold change vs veh, TTC7A / RFU, TMEM135 / Fold change vs veh, TMEM135 / RFU, DEPTOR / Fold change vs veh, DEPTOR / RFU, CPM / Fold change vs veh, CPM / RFU, DNAJB6 / Fold change vs veh, DNAJB6 / RFU, CACNA2D3 / Fold change vs veh, CACNA2D3 / RFU, DTX4 / Fold change vs veh, DTX4 / RFU, TFCP2 / Fold change vs veh, TFCP2 / RFU, GMCL1 /// GMCL1P1 / Fold change vs veh, GMCL1 /// GMCL1P1 / RFU, AEBP2 / Fold change vs veh, AEBP2 / RFU, SNHG1 /// SNORD22 /// SNORD25 /// SNORD26 /// SNORD27 /// SNORD28 /// SNORD29 /// SNORD31 / Fold change vs veh, SNHG1 /// SNORD22 /// SNORD25 /// SNORD26 /// SNORD27 /// SNORD28 /// SNORD29 /// SNORD31 / Fold change (Aza/veh), C12orf56 (ProbeSet 11735607_a_at) / Fold change (ACY-1035/veh), C12orf56 (ProbeSet 11735607_a_at) / Fold change (Aza/veh), FGFR1OP (ProbeSet 11751329_s_at) / Fold change (ACY-1035/veh), FGFR1OP (ProbeSet 11751329_s_at) / Fold change (Aza/veh), VPS36 (ProbeSet 11739960_a_at) / Fold change (ACY-1035/veh), VPS36 (ProbeSet 11739960_a_at) / RFU SYPL1 (11715823_x_at) / Fold change /veh SYPL1 (11715823_x_at) / RFU IGFBP7 (11715501_s_at) / Fold change /veh IGFBP7 (11715501_s_at) / RFU REEP3 (11722064_at) / Fold change /veh REEP3 (11722064_at) / RFU IGLL1 (11728026_x_at) / Fold change /veh IGLL1 (11728026_x_at): dose or concentration left out as unconfirmed
Settings: ProbeSet 11722022_s_at; LIST D

## Nc1ncn([C@@H]2O[C@H](CO)[C@@H](O)[C@H]2O)c(=O)n1 [azacitidine]
  Fold change vs veh, CDK5R1: 0.77

— paper PMC5218480 (PLoS ONE, 2017)
